Numbers after ± are expanded uncertainties.
Assays:
[1] = Crystal; DTA
[2] = Molar enthalpy of transition or fusion; details: Crystal; DSC

Row | Normal melting temperature [1] | Molar enthalpy of transition or fusion [2] | Structure (SMILES)
1 | 171 ± 1 °C | 5.35 ± 0.167 kcal/mol | O=C(O)[C@H](O)[C@@H](O)C(=O)O [(2R,3R)-2,3-dihydroxybutanedioic acid]
2 | 99 ± 1 °C | 8.22 ± 0.239 kcal/mol | O[C@@H]1CCCC[C@H]1O (relative stereo) [trans-1,2-cyclohexanediol]
3 | 108 ± 1 °C | 4.3 ± 0.143 kcal/mol | O[C@@H]1CCCC[C@H]1O [(1R,2R)-1,2-cyclohexanediol]
4 | 104 ± 1 °C | 3.59 ± 0.12 kcal/mol | O[C@H]1CCCC[C@@H]1O [1,2-cyclohexanediol, (1S,2S)-]

— the NIST ThermoML archive (doi:10.1016/j.tca.2009.09.001)
